According to US20210322582A1, “RADIOACTIVE IMIDAZOTHIADIAZOLE DERIVATIVE COMPOUND” (Nihon Medi-Physics Co., Ltd., priority 2018, published 2021):

Experiments:
MDA-MB-231 tumor = assay: Biodistribution of [^111In]ITDA2 in MDA-MB-231 tumor cancer-bearing mouse; type: in vivo; settings: MDA-MB-231 tumor mouse, 24 hours
Experimental: (§1) HT-29 cells (5×10^6 cells/mouse) and MDA-MB-231 cells (1×10^7 cells/mouse) were subcutaneously inoculated into the left shoulders of 5-week old male BALB/c nude mice, respectively, and the mice were used when the tumor diameter reached 6 to 10 mm. A saline solution (100 μL) in which [^111In]ITDA2 (40 kBq) had been dissolved was administered to each of the HT-29 tumor or MDA-MB-231 tumor cancer-bearing mice (n=5) via the tail vein. The HT-29 tumor cancer-bearing mice were slaughtered after the lapse of 1, 4, 8, and 24 hours from the administration, the MDA-MB-231 tumor cancer-bearing mouse was slaughtered after the lapse of 24 hours from the administration, and the blood, spleen, pancreas, stomach, intestines, kidney, liver, heart, lungs, brain, tumor, and muscle were recovered from each of the mice. The weight of each organ was measured, and the amount of radioactivity in each organ was measured by using a gamma counter. The accumulation of radioactivity in each organ except for stomach was expressed by % injected dose/g organ obtained by dividing the ratio of the amount of radioactivity of each organ to the administered amount of radioactivity by the organ weight. The stomach was expressed by % injected dose.

HT-29 tumor = assay: Biodistribution of [^111In]ITDA2 in HT-29 tumor cancer-bearing mouse; type: in vivo; settings: HT-29 tumor mouse
Experimental: as §1

NS(=O)(=O)c1nn2cc(-c3ccc(NC(=O)CN4CCN(CC(=O)O)CCN(CC(=O)Nc5ccc(-c6cn7nc(S(N)(=O)=O)sc7n6)cc5)CCN(CC(=O)O)CC4)cc3)nc2s1.[111In+3] [[^111In]ITDA2, [^111In]indium(III)2,2′-(4,10-bis(2-oxo-2-((4-(2-sulfamoylimidazo[2,1-b][1,3,4]thiadiazol-6-yl)phenyl)amino)ethyl)-1,4,7,10-tetraazacyclododecan-1,7-diyl) diacetic acid]
Biokinetics: Blood (MDA-MB-231 tumor): 0.29 ± 0.04 % injected dose/g organ | Biokinetics: Brain (MDA-MB-231 tumor): 0.34 ± 0.07 % injected dose/g organ | Biokinetics: Heart (MDA-MB-231 tumor): 1.13 ± 0.19 % injected dose/g organ | Biokinetics: Intestines (MDA-MB-231 tumor): 9.15 ± 1.04 % injected dose/g organ | Biokinetics: Kidney (MDA-MB-231 tumor): 59.8 ± 4.04 % injected dose/g organ | Biokinetics: Liver (MDA-MB-231 tumor): 2.77 ± 0.45 % injected dose/g organ | Biokinetics: Lungs (MDA-MB-231 tumor): 1.70 ± 0.57 % injected dose/g organ | Biokinetics: Muscle (MDA-MB-231 tumor): 0.64 ± 0.06 % injected dose/g organ | Biokinetics: Pancreas (MDA-MB-231 tumor): 3.37 ± 0.28 % injected dose/g organ | Biokinetics: Spleen (MDA-MB-231 tumor): 0.27 ± 0.07 % injected dose/g organ | Biokinetics: Stomach (MDA-MB-231 tumor): 8.43 ± 1.08 % injected dose | Biokinetics: Tumor (MDA-MB-231 tumor): 1.56 ± 0.17 % injected dose/g organ | Tumor/blood (MDA-MB-231 tumor): 5.51 ± 0.78 | Tumor/muscle (MDA-MB-231 tumor): 2.46 ± 0.39 | Biokinetics: Blood (HT-29 tumor; 1 hour): 0.27 ± 0.03 % injected dose/g organ | Biokinetics: Brain (HT-29 tumor; 1 hour): 0.30 ± 0.04 % injected dose/g organ | Biokinetics: Heart (HT-29 tumor; 1 hour): 5.64 ± 1.01 % injected dose/g organ | Biokinetics: Intestines (HT-29 tumor; 1 hour): 11.24 ± 1.54 % injected dose/g organ | Biokinetics: Kidney (HT-29 tumor; 1 hour): 137 ± 11.1 % injected dose/g organ | Biokinetics: Liver (HT-29 tumor; 1 hour): 4.11 ± 0.54 % injected dose/g organ | Biokinetics: Lungs (HT-29 tumor; 1 hour): 6.10 ± 0.97 % injected dose/g organ | Biokinetics: Muscle (HT-29 tumor; 1 hour): 2.05 ± 0.61 % injected dose/g organ | Biokinetics: Pancreas (HT-29 tumor; 1 hour): 20.01 ± 6.77 % injected dose/g organ | Biokinetics: Spleen (HT-29 tumor; 1 hour): 0.40 ± 0.27 % injected dose/g organ | Biokinetics: Stomach (HT-29 tumor; 1 hour): 3.99 ± 0.49 % injected dose | Biokinetics: Tumor (HT-29 tumor; 1 hour): 2.11 ± 0.32 % injected dose/g organ | Tumor/blood (HT-29 tumor; 1 hour): 7.78 ± 0.95 | Tumor/muscle (HT-29 tumor; 1 hour): 1.12 ± 0.45 | Biokinetics: Blood (HT-29 tumor; 4 hours): 0.18 ± 0.01 % injected dose/g organ | Biokinetics: Brain (HT-29 tumor; 4 hours): 0.30 ± 0.04 % injected dose/g organ | Biokinetics: Heart (HT-29 tumor; 4 hours): 2.81 ± 0.39 % injected dose/g organ | Biokinetics: Intestines (HT-29 tumor; 4 hours): 15.32 ± 1.51 % injected dose/g organ | Biokinetics: Kidney (HT-29 tumor; 4 hours): 143 ± 12.0 % injected dose/g organ | Biokinetics: Liver (HT-29 tumor; 4 hours): 4.87 ± 1.08 % injected dose/g organ | Biokinetics: Lungs (HT-29 tumor; 4 hours): 4.25 ± 0.76 % injected dose/g organ | Biokinetics: Muscle (HT-29 tumor; 4 hours): 2.00 ± 0.21 % injected dose/g organ | Biokinetics: Pancreas (HT-29 tumor; 4 hours): 20.88 ± 2.49 % injected dose/g organ | Biokinetics: Spleen (HT-29 tumor; 4 hours): 0.13 ± 0.10 % injected dose/g organ | Biokinetics: Stomach (HT-29 tumor; 4 hours): 5.09 ± 0.66 % injected dose | Biokinetics: Tumor (HT-29 tumor; 4 hours): 2.47 ± 0.30 % injected dose/g organ | Tumor/blood (HT-29 tumor; 4 hours): 13.85 ± 2.45 | Tumor/muscle (HT-29 tumor; 4 hours): 1.24 ± 0.19 | Biokinetics: Blood (HT-29 tumor; 8 hours): 0.20 ± 0.01 % injected dose/g organ | Biokinetics: Brain (HT-29 tumor; 8 hours): 0.35 ± 0.05 % injected dose/g organ | Biokinetics: Heart (HT-29 tumor; 8 hours): 1.89 ± 0.35 % injected dose/g organ | Biokinetics: Intestines (HT-29 tumor; 8 hours): 15.40 ± 0.94 % injected dose/g organ | Biokinetics: Kidney (HT-29 tumor; 8 hours): 110 ± 13.7 % injected dose/g organ | Biokinetics: Liver (HT-29 tumor; 8 hours): 4.58 ± 0.76 % injected dose/g organ | Biokinetics: Lungs (HT-29 tumor; 8 hours): 2.87 ± 1.08 % injected dose/g organ | Biokinetics: Muscle (HT-29 tumor; 8 hours): 1.39 ± 0.20 % injected dose/g organ | Biokinetics: Pancreas (HT-29 tumor; 8 hours): 13.15 ± 4.17 % injected dose/g organ | Biokinetics: Spleen (HT-29 tumor; 8 hours): 0.32 ± 0.20 % injected dose/g organ | Biokinetics: Stomach (HT-29 tumor; 8 hours): 6.78 ± 0.95 % injected dose | Biokinetics: Tumor (HT-29 tumor; 8 hours): 3.10 ± 0.35 % injected dose/g organ | Tumor/blood (HT-29 tumor; 8 hours): 15.31 ± 1.69 | Tumor/muscle (HT-29 tumor; 8 hours): 2.28 ± 0.39 | Biokinetics: Blood (HT-29 tumor; 24 hours): 0.26 ± 0.02 % injected dose/g organ | Biokinetics: Brain (HT-29 tumor; 24 hours): 0.37 ± 0.09 % injected dose/g organ | Biokinetics: Heart (HT-29 tumor; 24 hours): 1.58 ± 0.42 % injected dose/g organ | Biokinetics: Intestines (HT-29 tumor; 24 hours): 11.14 ± 2.06 % injected dose/g organ | Biokinetics: Kidney (HT-29 tumor; 24 hours): 76.4 ± 17.2 % injected dose/g organ | Biokinetics: Liver (HT-29 tumor; 24 hours): 3.50 ± 0.81 % injected dose/g organ | Biokinetics: Lungs (HT-29 tumor; 24 hours): 2.15 ± 0.49 % injected dose/g organ | Biokinetics: Muscle (HT-29 tumor; 24 hours): 1.00 ± 0.25 % injected dose/g organ | Biokinetics: Pancreas (HT-29 tumor; 24 hours): 7.23 ± 1.40 % injected dose/g organ | Biokinetics: Spleen (HT-29 tumor; 24 hours): 0.27 ± 0.13 % injected dose/g organ | Biokinetics: Stomach (HT-29 tumor; 24 hours): 9.33 ± 0.72 % injected dose | Biokinetics: Tumor (HT-29 tumor; 24 hours): 5.93 ± 0.88 % injected dose/g organ | Tumor/blood (HT-29 tumor; 24 hours): 22.63 ± 3.31 | Tumor/muscle (HT-29 tumor; 24 hours): 6.18 ± 1.45
